Tests used:
Test in all cases: single sensillum recording of the wild-type OSN expressing the receptor
Ir31a = target: T1, Ir31a (Drosophila melanogaster, UniProt Q8IPB8); settings: agonist (best ligand); odorant dilution 10^-1 in hexane, 0.5 s stimulus
T1 construct: native full-length ionotropic receptor in olfactory sensory neurons of wild-type flies (single sensillum recording); with Ionotropic receptor 8a
T1 sequence (Q8IPB8 18-629): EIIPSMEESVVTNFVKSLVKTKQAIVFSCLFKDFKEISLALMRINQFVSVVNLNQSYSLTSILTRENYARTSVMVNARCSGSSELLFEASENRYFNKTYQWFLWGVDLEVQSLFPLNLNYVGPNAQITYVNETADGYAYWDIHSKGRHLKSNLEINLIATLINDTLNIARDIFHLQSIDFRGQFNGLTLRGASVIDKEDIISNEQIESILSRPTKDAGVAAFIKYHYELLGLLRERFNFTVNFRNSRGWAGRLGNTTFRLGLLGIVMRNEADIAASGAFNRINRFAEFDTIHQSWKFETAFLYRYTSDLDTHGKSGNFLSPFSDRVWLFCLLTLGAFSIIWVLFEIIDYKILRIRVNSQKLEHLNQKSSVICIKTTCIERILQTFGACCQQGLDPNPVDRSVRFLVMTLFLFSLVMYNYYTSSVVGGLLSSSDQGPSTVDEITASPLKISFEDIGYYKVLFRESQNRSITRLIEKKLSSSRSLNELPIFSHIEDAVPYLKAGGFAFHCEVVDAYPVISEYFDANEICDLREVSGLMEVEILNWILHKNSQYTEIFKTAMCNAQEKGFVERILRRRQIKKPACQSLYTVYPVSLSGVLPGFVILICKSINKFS
T1 sequence (Q9W365 18-936 partner): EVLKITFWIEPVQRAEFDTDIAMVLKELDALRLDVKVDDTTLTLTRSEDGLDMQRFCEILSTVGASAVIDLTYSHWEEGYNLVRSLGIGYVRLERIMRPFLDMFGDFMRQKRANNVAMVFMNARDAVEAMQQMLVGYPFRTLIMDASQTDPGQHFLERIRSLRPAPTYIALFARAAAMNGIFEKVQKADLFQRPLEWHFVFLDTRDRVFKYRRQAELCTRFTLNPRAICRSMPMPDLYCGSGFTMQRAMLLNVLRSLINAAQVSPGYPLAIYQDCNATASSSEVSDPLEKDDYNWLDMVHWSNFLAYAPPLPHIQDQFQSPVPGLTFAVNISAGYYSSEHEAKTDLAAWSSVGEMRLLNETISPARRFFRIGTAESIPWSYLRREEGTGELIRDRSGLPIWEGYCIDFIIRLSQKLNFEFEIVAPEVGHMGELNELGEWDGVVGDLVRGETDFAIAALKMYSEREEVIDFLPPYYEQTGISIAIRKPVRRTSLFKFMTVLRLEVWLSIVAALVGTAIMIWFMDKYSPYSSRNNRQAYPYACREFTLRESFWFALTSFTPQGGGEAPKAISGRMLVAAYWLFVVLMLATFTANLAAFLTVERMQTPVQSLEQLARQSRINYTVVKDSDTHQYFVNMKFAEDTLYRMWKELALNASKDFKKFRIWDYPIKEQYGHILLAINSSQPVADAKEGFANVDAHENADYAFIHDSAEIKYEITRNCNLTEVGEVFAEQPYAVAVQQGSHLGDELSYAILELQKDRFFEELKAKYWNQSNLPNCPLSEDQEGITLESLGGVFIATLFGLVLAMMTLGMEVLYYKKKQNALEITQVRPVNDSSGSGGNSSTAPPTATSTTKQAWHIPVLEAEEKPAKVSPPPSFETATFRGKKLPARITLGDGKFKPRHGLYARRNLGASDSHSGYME

Or19a = target: T2, Or19a (Drosophila melanogaster, UniProt Q9I816); settings: odorant dilution 10^-1 in hexane, 0.5 s stimulus
T2 construct: native full-length receptor in olfactory sensory neurons (ai2 sensillum) of wild-type flies; paralogue Or19b may be co-expressed; with Odorant receptor coreceptor
T2 sequence (Q9I816 1-387): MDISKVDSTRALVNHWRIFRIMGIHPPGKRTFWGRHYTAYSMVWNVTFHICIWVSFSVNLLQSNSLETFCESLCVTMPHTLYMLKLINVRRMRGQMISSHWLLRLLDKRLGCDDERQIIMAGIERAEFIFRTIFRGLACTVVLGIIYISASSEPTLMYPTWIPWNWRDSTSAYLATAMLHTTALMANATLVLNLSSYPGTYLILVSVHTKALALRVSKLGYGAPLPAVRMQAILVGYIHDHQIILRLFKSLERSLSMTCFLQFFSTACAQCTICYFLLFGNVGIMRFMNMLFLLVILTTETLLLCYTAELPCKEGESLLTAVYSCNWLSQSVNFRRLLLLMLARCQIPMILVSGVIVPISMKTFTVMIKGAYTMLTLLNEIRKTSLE
T2 sequence (Q9VNB5 1-486 partner): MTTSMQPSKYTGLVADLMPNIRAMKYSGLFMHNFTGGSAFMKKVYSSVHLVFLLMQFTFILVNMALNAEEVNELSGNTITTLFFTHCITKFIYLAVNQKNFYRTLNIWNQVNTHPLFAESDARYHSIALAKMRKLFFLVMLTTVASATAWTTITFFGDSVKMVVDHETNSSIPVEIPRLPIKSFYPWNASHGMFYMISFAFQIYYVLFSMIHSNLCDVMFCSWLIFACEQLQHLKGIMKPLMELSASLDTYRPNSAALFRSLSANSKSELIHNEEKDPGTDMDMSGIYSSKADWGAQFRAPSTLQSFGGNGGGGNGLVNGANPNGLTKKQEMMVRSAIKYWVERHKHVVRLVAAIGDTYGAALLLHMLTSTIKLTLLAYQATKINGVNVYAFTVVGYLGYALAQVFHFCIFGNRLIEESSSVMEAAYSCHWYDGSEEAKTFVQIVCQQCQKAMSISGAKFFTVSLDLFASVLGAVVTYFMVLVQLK

Or22a = target: T3, Or22a (Drosophila melanogaster, UniProt P81909); settings: agonist; odorant dilution 10^-1 in hexane, 0.5 s stimulus
T3 construct: native full-length receptor in olfactory sensory neurons (ab3A) of wild-type flies; Or22b may be co-expressed; with Odorant receptor coreceptor
T3 sequence (P81909 1-397): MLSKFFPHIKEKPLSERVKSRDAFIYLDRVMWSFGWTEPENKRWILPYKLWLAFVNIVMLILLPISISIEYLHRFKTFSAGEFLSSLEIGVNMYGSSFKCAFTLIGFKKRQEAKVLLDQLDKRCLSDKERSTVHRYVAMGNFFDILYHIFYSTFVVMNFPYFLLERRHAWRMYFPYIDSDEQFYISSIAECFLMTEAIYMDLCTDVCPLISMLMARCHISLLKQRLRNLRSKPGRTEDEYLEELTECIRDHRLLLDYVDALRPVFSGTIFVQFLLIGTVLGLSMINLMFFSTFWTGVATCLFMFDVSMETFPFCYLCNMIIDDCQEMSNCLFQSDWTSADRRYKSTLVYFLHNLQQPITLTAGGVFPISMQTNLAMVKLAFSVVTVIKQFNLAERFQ
T3 sequence (Q9VNB5 1-486 partner): T2 sequence (Q9VNB5 1-486 partner)

Or49b = target: T4, Or49b (Drosophila melanogaster, UniProt Q9V6H2); settings: agonist (best ligand); odorant dilution 10^-1 in hexane, 0.5 s stimulus
T4 construct: native full-length receptor in olfactory sensory neurons (ab6B) of wild-type flies (single sensillum recording); with Odorant receptor coreceptor
T4 sequence (Q9V6H2 1-375): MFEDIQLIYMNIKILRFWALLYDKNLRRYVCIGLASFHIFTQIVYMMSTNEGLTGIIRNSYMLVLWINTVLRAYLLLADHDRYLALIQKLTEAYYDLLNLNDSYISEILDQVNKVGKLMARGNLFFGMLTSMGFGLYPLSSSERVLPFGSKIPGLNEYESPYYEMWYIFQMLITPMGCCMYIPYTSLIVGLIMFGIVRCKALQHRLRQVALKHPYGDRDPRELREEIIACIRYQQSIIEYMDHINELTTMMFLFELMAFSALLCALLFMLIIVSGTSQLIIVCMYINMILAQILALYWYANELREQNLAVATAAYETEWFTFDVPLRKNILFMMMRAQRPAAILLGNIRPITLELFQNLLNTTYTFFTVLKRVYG
T4 sequence (Q9VNB5 1-486 partner): T2 sequence (Q9VNB5 1-486 partner)

SMILES: CCCC(=O)C(=O)O [2-oxo-valeric acid]
- spikes/s (Ir31a): both being chemosensory receptors shown to be activated by stimulation with this odorant
- spikes/s (Or19a; printed as gated by the odorant, direction not told): Or19a as an OR being gated by 2-oxo-valeric acid
- spikes/s (Or22a): both being chemosensory receptors shown to be activated by stimulation with this odorant

SMILES: CC(=O)OC/C=C(\C)CCC=C(C)C [geranyl acetate]
- spikes/s (Or19a; agonist): OSNs expressing Or19a indeed become activated by high amounts of geranyl acetate

SMILES: COc1ccccc1O [guaiacol]
- spikes/s (Or49b): confirming the published ligand–receptor interaction of guaiacol and Or49b
